Structures can show the parent of a compound that is named as a salt. Where two headings read alike, the source gives them in different places.
Legend:
KB cell = assay: Cancer cell growth inhibitory activity (KB cells, MTT colorimetric determination); assay type: cell-based, human
Description: In order to evaluate tyrosine kinase inhibitory activity and cancer cell growth inhibitory activity for tyrosine kinase inhibitor of the invention, tests were carried out in partially purified human EGF (epidermal growth factor) receptor tyrosine kinase activity detemination system and in a cell incubation system using human cancer cells. Furthermore, in order to compare and evaluate strength of inhibitory activity, relatively higher active ones amongst known tyrosine kinase inhibitors disclosed in patents or literatures were tested simultaneously.
Accordingly, the KB cell was used to evaluate the effect of test compounds on the growth of cultured cancer cells.
KB cells were plated on a 96-well dish (2.5x 10^3 cell/well) and cultured for 24 hours at 37 ° C under 5% C02 atmosphere in DMEM:F12 (1:1) medium containing 10% FCS, 50 µg/ml penicillin, and 50µg/ml streptomycin. To the culture medium was added a test compound dissolved in DMSO (DMSO final concentration < 0.1%), and the cells were cultured for three days under the same conditions. The test compound was exchanged every 24 hours together with the culture medium.
The amount of living cells were measured by calorimetric determination at wave lengths of 550 nm and 650 nm after developing colour by MTT (3-[4,5-Dimethylthiazol-2-yl]-2,5-diphenyltetrazolium bromide), in accordance with the method of Michael C. Alley et al. (Cancer Research 48 589, 1988).
Cancer cell growth inhibitory activity (CCGIA) was determined according to the following equation. [formula] Symbols "a" and "b" represent the colorimetric values determined in the cancer cell growth assay with and without the test compounds, respectively.

[1] = target: T1, partially purified human EGF (epidermal growth factor) receptor tyrosine kinase (Homo sapiens, UniProt P00533); assay: biochemical
T1 construct: The cell membrane fraction, a partially purified EGF receptor, was used as an enzyme source; endogenous in cells; host or cells: A431 human epidermoid carcinoma cells (membrane fraction, 10000xg pellet)

[2] = Homo sapiens, 72 h; Table-3; KB cells, three days culture, MTT; 3) fumarate, 4) hydrochloride
[3] = Table-2; […]; 3) fumarate, 4) hydrochloride, read-out: Tyrosine kinase inhibitory activity (IC50)
[4] = Table-2 continued; […]; 4) hydrochloride, read-out: Tyrosine kinase inhibitory activity (IC50, μ)

T1 sequence (P01133 971-1023): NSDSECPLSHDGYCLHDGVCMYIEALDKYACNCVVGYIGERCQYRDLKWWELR
T1 sequence (P00533 25-1210): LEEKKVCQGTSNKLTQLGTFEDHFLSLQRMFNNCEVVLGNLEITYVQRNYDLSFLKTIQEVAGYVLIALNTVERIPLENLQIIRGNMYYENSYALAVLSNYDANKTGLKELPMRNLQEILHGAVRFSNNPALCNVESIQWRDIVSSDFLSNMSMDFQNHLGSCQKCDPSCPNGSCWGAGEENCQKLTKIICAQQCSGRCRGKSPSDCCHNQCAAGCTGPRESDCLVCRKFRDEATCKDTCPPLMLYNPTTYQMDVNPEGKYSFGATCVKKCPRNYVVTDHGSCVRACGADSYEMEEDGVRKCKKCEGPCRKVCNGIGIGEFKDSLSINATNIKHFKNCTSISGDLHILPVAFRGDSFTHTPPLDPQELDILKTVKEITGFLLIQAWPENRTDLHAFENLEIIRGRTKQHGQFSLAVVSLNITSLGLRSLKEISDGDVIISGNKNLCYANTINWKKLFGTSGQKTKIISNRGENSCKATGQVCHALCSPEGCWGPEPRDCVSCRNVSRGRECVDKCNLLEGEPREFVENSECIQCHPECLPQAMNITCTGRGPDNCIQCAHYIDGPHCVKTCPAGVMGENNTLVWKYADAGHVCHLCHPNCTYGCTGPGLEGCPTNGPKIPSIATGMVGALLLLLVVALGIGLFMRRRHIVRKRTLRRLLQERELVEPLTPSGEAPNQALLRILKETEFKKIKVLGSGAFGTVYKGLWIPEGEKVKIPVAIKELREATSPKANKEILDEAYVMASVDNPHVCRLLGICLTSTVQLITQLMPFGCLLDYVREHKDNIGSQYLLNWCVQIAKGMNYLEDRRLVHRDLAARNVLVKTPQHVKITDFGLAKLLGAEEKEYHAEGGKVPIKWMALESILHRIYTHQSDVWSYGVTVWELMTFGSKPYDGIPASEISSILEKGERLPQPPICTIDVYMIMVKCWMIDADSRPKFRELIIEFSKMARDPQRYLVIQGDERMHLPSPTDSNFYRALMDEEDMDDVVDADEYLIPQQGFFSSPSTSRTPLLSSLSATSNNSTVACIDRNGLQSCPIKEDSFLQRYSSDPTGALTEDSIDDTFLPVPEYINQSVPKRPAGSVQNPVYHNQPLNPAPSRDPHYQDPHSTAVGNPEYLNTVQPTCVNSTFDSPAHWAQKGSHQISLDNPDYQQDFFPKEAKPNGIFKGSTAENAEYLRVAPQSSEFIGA

Structure (SMILES)	IC50 (KB cell; [2])	IC50 [1, 3]	IC50 [1, 4]	IC50 (KB cell; Table-3; KB cells, three days culture, MTT; 3) fumarate, 4) hydrochloride)
N#CC(=Cc1ccc(O)c(O)c1)C(=O)Nc1ccccc1 [[drawing] 1)]	17000 nM			
CCOc1cc(C=C(C#N)C(N)=O)cc(CSc2ccccc2)c1O [[drawing] 2)]	52000 nM	3200 nM		
C#CC(=O)c1ccc(OC)c(OC)c1 [compound 2]	13000 nM			
COc1ccc(C(=O)C#CC(C)(C)C)cc1OC [compound 8]	2200 nM			
COc1ccc(C(=O)C#Cc2ccccc2)cc1OC [compound 19]	2650 nM	670 nM		
COc1ccc(C(=O)C#Cc2ccccn2)cc1OC [compound 69]	1520 nM	240 nM		
COc1ccc(C(=O)C#CC(=O)Nc2ccccc2)cc1OC [compound 197]		1000 nM		
CCN(CC)CC#CC(=O)c1ccc(OC)c(OC)c1 [compound 222]	840 nM		13 nM	
COc1ccc(C(=O)C#CCN(C(C)C)C(C)C)cc1OC [compound 242]	2100 nM	35 nM		
COc1ccc(C(=O)C#CCN2CCCCC2)cc1OC [compound 287]	1600 nM	470 nM		
COc1ccc(C(=O)C#CCN2C(C)(C)CCCC2(C)C)cc1OC [compound 313]	1000 nM	180 nM		
COc1ccc(C(=O)C#CCNC(=O)OC(C)(C)C)cc1OC [compound 388]	1100 nM		69 nM	
COc1ccc(C(=O)C#CC(C)(C)N)cc1OC [compound 395, 4-amino-1-(3,4-dimethoxy)phenyl-1-oxo-4-methyl-2-pentyne hydrochloride]		39 nM		
COc1ccc(C(=O)C#CC(C)(C)N(C)C)cc1OC [compound 402]	930 nM		330 nM	
CCN(CC)C(C)(C)C#CC(=O)c1ccc(OC)c(OC)c1 [compound 410]	690 nM	730 nM		
CCN(CC)C(C)(C#CC(=O)c1ccc(OC)c(OC)c1)C(C)C (centres unmarked) [compound 455]	560 nM	2900 nM		
COc1ccc(C(=O)C#CC(C)(C)N2CCCCC2)cc1 [compound 476]	550 nM			
COc1ccc(C(=O)C#CC(C)(C)N2CCCCC2)cc1OC [compound 477]	640 nM	1300 nM		
CC(C)(C#CC(=O)c1ccc(Cl)c(Cl)c1)N1CCCCC1 [compound 480]	510 nM			
CC(C)(C#CC(=O)c1ccc2c(c1)OCO2)N1CCCCC1 [compound 482]	300 nM			
CC(C)(C#CC(=O)c1ccc(F)cc1)N1CCCCC1 [compound 483]	340 nM			
CSc1ccc(C(=O)C#CC(C)(C)N2CCCCC2)cc1 [compound 484]	410 nM	1300 nM		
CN(C)c1ccc(C(=O)C#CC(C)(C)N2CCCCC2)cc1 [compound 485]	690 nM			
COc1cc(C(=O)C#CC(C)(C)N2CCCCC2)cc2c1OCO2 [compound 500]	480 nM	350 nM		

Structure (SMILES)	IC50 (KB cell; [2])	IC50 [1, 3]	IC50 [1, 4]	IC50 (KB cell; Table-3; KB cells, three days culture, MTT; 3) fumarate, 4) hydrochloride)
CC(C)(C#CC(=O)c1cc2c(cc1[N+](=O)[O-])OCO2)N1CCCCC1 [compound 501]	1480 nM			
CCN(CC)C1(C#CC(=O)c2ccc(OC)c(OC)c2)CCCCC1 [compound 555]	460 nM	1700 nM		
COc1ccc(C(=O)C#CC(C)(C)O)cc1OC [compound 613]	1410 nM	150 nM		
COc1ccc(C(=O)C#CC(C)(C)NC(=O)OCc2ccccc2)cc1OC [compound 619]	1100 nM	660 nM		
COc1ccc(C(=O)C#CC(O)(C(C)C)C(C)C)cc1OC [compound 627]	680 nM			
COc1ccc(C(=O)C#C[Si](C)(C)C)cc1OC [compound 633]	14500 nM			
COc1ccc(C(=O)C#CC(C)(C)Nc2cccc(Cl)c2)cc1OC [compound 642]	1500 nM		96 nM	
COc1ccc(C(=O)C#CC(C)(C)Nc2ccccc2)cc1OC [compound 643]	1100 nM		120 nM	
COc1ccc(C(=O)C#CC(C)(C)NCC(C)C)cc1OC [compound 644]	2800 nM		66 nM	
COc1ccc(C(=O)C#CC(C)(C)Nc2c(C)cccc2C)cc1OC [compound 645]	3400 nM		2200 nM	
COc1ccc(C(=O)C#CC(C)(C)Nc2cccnc2)cc1OC [compound 646]	2800 nM		300 nM	
COc1ccc(C(=O)C#CC(C)(C)NCc2ccccc2)cc1OC [compound 647]	790 nM		190 nM	
COc1ccc(C(=O)C#CC(C)(C)NCCc2c[nH]c3ccccc23)cc1OC [compound 648]	1600 nM		37 nM	
COc1ccc(C(=O)C#CC(C)(C)NC(=O)OCc2cccnc2)cc1OC [compound 649]	1100 nM	960 nM		
COc1ccc(C(=O)C#CC(C)(C)NC(=O)OCc2ccc[n+](C)c2)cc1OC [compound 650]				6500 nM
COc1ccc(C(=O)C#CC(C)(C)NC(=O)OCc2ccc[n+]([O-])c2)cc1OC [compound 651]	3500 nM	660 nM		
COc1ccc(C(=O)C#CC(C)(C)NS(=O)(=O)c2ccc(OC)c(OC)c2)cc1OC [compound 652]	1300 nM			
COc1ccc(C(=O)C#CC(C)(NCCCO)C(C)C)cc1OC (centres unmarked) [compound 654]	1000 nM		940 nM	
COc1ccc(C(=O)C#CC(C)(C(C)C)N(C)CCCO)cc1OC (centres unmarked) [compound 655]	2100 nM			
COc1cccc(C(=O)C#CC(C)(C)N2CCCCC2)c1OC [compound 664]	680 nM		930 nM	
COc1ccc(OC)c(C(=O)C#CC(C)(C)N2CCCCC2)c1 [compound 665]	270 nM		1400 nM	
CC(C)(C#CC(=O)c1ccc(S(C)(=O)=O)cc1)N1CCCCC1 [compound 666]	2200 nM		2600 nM	
CC(C)(C)c1cc(C(=O)C#CC(C)(C)N2CCCCC2)cc(C(C)(C)C)c1O [compound 667]	120 nM			
